How the values were obtained:
BJ-5ta cells = experiment: Cell proliferation assay ([3H]TdR incorporation); type: cell-based, human; conditions: for level of cell proliferation ([3H]TdR incorporation): 1 nM dose, CFPS-produced protein
Experimental: BJ-5ta cells, human immortalized foreskin fibroblast cells that express human EGFR (American Type Culture Collection), were plated in 96-well plates at a density of 2500 cells per well in 100 μl of full medium [Dulbecco's modified Eagle's medium (DMEM)] supplemented with 1% penicillin/streptomycin (Pen/Strep), 1% I-glutamine, 1% sodium pyruvate, 20% M199, and 10% fetal bovine serum. All cell culture reagents were from invitrogen. After 24 h, cells were serum-starved for 48 h in serum-free medium (DMEM supplemented with 1% Pen/Strep, 1% I-glutamine, 1% sodium pyruvate, and 20% M199). The medium was then replaced with 100 μl of serum-free medium containing the indicated concentrations of treatment protein.
When indicated, the standard serum-free medium used during protein treatment was replaced with advanced media (Advanced DMEM supplemented with 1% Pen/Strep, 1% I-glutamine, 1% sodium pyruvate, and 20% M199) or supplemented with human recombinant insulin. […]
[3H]TdR incorporation was measured 24 h later by freezing the plates at −80° C. overnight, thawing the plates at room temperature, harvesting the cells onto glass fiber filter mats (Perkin Elmer) with a Mach IIIM Harvester (Tomtec), and performing scintillation counting with a Wallac MicroBeta Counter (Perkin Elmer).
BJ5ta cells were plated in 96-well plates at densities of 2,500 cells/well (BJ5ta), in 100 μl of complete medium. […] 3H-TdR incorporation was measured 24 h later by freezing the cells overnight at −80° C. and harvesting the cells onto glass fiber filtermats (Perkin Elmer) using a Mach IIIM harvester (Tomtec). […]
BJ-5ta cells were plated in 96-well plates at a density of 5,000 cells/well and 2,500 cells/well, respectively, in 100 μl of medium. […] 3H-TdR incorporation was measured 24 h later by harvesting the cells onto glass fiber filtermats (Perkin Elmer, Waltham, Mass.) using a Mach IIIM harvester (Tomtec, Hamden, Conn.) and performing scintillation counting with a Wallac MicroBeta (Perkin Elmer, Waltham, Mass.).

BJ5ta cells = experiment: Chemotactic cell migration assay, BJ-5ta; type: cell-based, human; conditions: 0.3 nM, 3-hour exposure
Experimental: Non-migrated cells were removed by wiping the upper side of the membrane with a cotton swab. The transwells were washed three times with PBS, fixed with methanol, and stained with modified Giemsa. Pictures were taken of the migrated stained cells in nine random high-powered fields (20×) using light microscopy, and the number of migrated cells was counted.
Costar transwells (Corning 3422, 8.0 μm pores, 6.5 mm diameter) were coated on both sides with 10 μg/ml bovine fibronectin (Sigma F1141-2MG, 1 mg/ml) overnight at 4° C. in buffer (50 mM Tris-HCl, 500 mM NaCl, pH 7.5), Transwells were then washed 3 times with PBS, and then blocked with PBS with 1% BSA (PBS/BSA) at 37° C. for 1 hr prior to usage. […] Non-migrated cells were removed by wiping the upper side of the membrane with Q-tips. […] Pictures were taken of the migrated-stained cells in nine random high-powered fields (20×) using light microscopy, and the number of migrated cells was counted using ImageJ software.
Costar transwells (8.0 μm pores, 6.5 mm diameter) were coated on both sides with bovine fibronectin (10 μg/ml) overnight at 4° C. washed 3 times with PBS, and then blocked with 1% bovine serum albumin (BSA) in PBS at 37° C. for 1 h prior to usage. […] Pictures were taken of the migrated-stained cells in nine random high powered fields (20×) using light microscopy, and the number of migrated cells were counted.

BALB/3T3 cells = experiment: Chemotactic cell migration assay, BALB/3T3; type: cell-based; conditions: 0.3 nM, 3-hour exposure
Experimental: (§1) Costar transwells (8.0 μm pores, 6.5 mm diameter) were coated on both sides with bovine fibronectin (10 μg/ml) overnight at 4° C. washed 3 times with PBS, and then blocked with 1% bovine serum albumin (BSA) in PBS at 37° C. for 1 h prior to usage. […] Non-migrated cells were removed by wiping the upper side of the membrane with a cotton swab. The transwells were washed three times with PBS, fixed with methanol, and stained with modified Giemsa. Pictures were taken of the migrated-stained cells in nine random high powered fields (20×) using light microscopy, and the number of migrated cells were counted.

hEGFR and mEGFR = experiment: SPR pH titration binding (Example 3); set-up: species or system human and murine; conditions: 200 nM ligand, pH 5.0 to 8.5
Experimental: pH titration binding experiments were performed at 25° C. in degassed buffer at various pHs ranging from 5.0 to 8.5. Wild-type and mutant EGF were diluted to 200 nM in pH buffer and flowed over the surface of the hEGFR sensorchip at a flow rate of 20 μL/min for 2 min. The hEGFR and mEGFR surfaces were regenerated as noted above. pH titration binding experiments were performed in triplicate at each pH over flow cells one and two for bath the hEGFR and mEGFR surfaces. The steady-state binding response was measured for each growth factor at the association phase plateau of the sensorgram.

NR6WT cells = experiment: Chemotactic cell migration assay, NR6WT; type: cell-based, murine; conditions: 0.3 nM, 3-hour exposure
Experimental: as §1

[1] = tested on: ErbB receptors expressed on the surface of CHO cells; experiment: EGF ligand specificity on transfected CHO cells; type: binding; conditions: 25 nM, 10 min, CHO cells individually expressing ErbB receptors
Experimental: The binding specificities of wild-type and mutant EGF were determined by flow cytometry using CHO cells transfected with EGFR or other ErbB receptor family members. […] Cells were labeled with a FITC-conjugated antibody directed against the N-terminal FLAG epitope tag on EGF and analyzed by flow cytometry.

pH sensitivity of steady-state binding to EGFR (hEGFR and mEGFR) | Substance | level of cell proliferation ([3H]TdR incorporation) (BJ-5ta cells) | chemotactic migration compared to wild-type EGF, BJ-5ta (BJ5ta cells) | chemotactic migration compared to wild-type EGF, BALB/3T3 (BALB/3T3 cells) | cell proliferation compared to wild-type EGF (BJ-5ta cells; varying concentrations, 72 hours) | chemotactic migration compared to wild-type EGF, NR6WT (NR6WT cells) | ErbB binding specificity [1]
– | L47R: EGF point mutant, leucine 47 substituted with arginine, used in mock libraries (NSDSECPLSHDGYCLHDGVCMYIEALDKYACNCVVGYIGERCQYRDRKWWELR; not fully specified; Epidermal growth factor; UniProt P01133 971-1023, looked up, variant L47R) | low | – | – | – | – | –
much less so | m123: high-affinity mutant EGF SEQ ID NO:17: NSYSECPPSYDGYCLHDGVCRYIEALDSYACNCVVGYAGERCQYRDLRWWGRR | – | increased chemotactic migration | increased chemotactic migration | no significant changes in the levels of cell proliferation | increased chemotactic migration | bound specifically to EGFR but not to other ErbB receptor family members
– | L47D: EGF point mutant, leucine 47 substituted with aspartic acid, used in mock libraries (NSDSECPLSHDGYCLHDGVCMYIEALDKYACNCVVGYIGERCQYRDDKWWELR; not fully specified; Epidermal growth factor; UniProt P01133 971-1023, looked up, variant L47D) | intermediate | – | – | – | – | –
